The record followed here is patent publication US20250136658A1, “ANTICONVULSANT AND NEUROPROTECTIVE AGENT” (THE UAB RESEARCH FOUNDATION, priority 2022, published 2025).

Series [1] deals with T1, GST-Nrb331-453 and [35S]-labeled A1R202-326 (A1R-neurabin interaction) (Homo sapiens, UniProt Q9ULJ8).
T1 construct: made in house
T1 sequence (Q9ULJ8 331-453): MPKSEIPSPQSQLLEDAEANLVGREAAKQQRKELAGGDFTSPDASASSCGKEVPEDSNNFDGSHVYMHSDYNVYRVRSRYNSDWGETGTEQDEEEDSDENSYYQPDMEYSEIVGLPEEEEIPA
Put plainly: In vitro GST competition pull-down. Format: binding. Particulars: peptide 0.1 μg/μl. From the text: FIG. 5A is a competition pull-down assay testing the abilities of A1R 3i loop (3iL) and C-tail (CT) peptides in blocking the interaction between GST-Nrb331-453 and [^35S]-labeled A1R202-326. […] A1R202-326 pulled down by GST-Nrb331-453. Free probe represents 1/10 of the input in each reaction.
FIG. 5B is a competition pull-down assay testing the abilities of A1R 3i loop (3iL) and C-tail (CT) peptides in blocking the interaction between GST-Nrb331-453 and [^35S]-labeled A1R202-326. In the graphical representation, quantitation of the amount of [^35S] A1R202-326 pulled down by GST-Nrb331-453 is shown. Free probe represents 1/10 of the input in each reaction. * represents p<0.05 vs. BSA control by one-way ANOVA Dunnett's multiple comparisons test. N=3/group.
Preparation of GST fusion proteins, synthesis of [^35S]-labeled in vitro translated probes, and pull-down assays were performed as described previously (See, for example, Chen Y, Booth C, Wang H, Wang R X, Terzi D, Zachariou V, et al. Effective Attenuation of Adenosine A1R Signaling by Neurabin Requires Oligomerization of Neurabin. Mol Pharmacol. 2017; 92 (6): 630-9; and Chen Y, Liu Y, Cottingham C, McMahon L, Jiao K, Greengard P, et al. Neurabin scaffolding of adenosine receptor and RGS4 regulates anti-seizure effect of endogenous adenosine. J Neurosci. 2012, 32 (8): 2683-95). […]

Series [2] deals with hippocampal CA3-CA1 synapses. Put plainly: fEPSP recording in acute hippocampal slices. In kind it is cell-based, mice.
The subject of series [3] is primary hippocampal neurons. Nature of the series: Glutamate-induced cell death in primary hippocampal neurons. Format: cell-based, mice. Particulars: 100 μM glutamate plus 10 μM R-PIA. As to the method: Primary hippocampal culture was performed as described previously (Chen Y, Liu Y, Cottingham C, McMahon L, Jiao K, Greengard P, et al. Neurabin scaffolding of adenosine receptor and RGS4 regulates anti-seizure effect of endogenous adenosine. J Neurosci. 2012, 32 (8): 2683-95). […] In brief, hippocampal neurons were cultured in 24-well plates for 13-14 days in vitro and treated with (1) vehicle, (2) 100 μM glutamate alone, (3) 100 μM glutamate plus 10 μM R-PIA, (4) 100 μM glutamate, 10 μM R-PIA, plus 30 μM LY294002, for 30 min at 37° C. Neurons were then washed twice, and incubated with regular growth medium at 37° C. for an additional 24 hrs. Neurons were stained with 4 μM calcein-AM and 4 μM EthD-1 in DPBS and mounted for imaging under a fluorescence microscope.

Series [4] has as its system Akt phosphorylation at Thr 308. Put plainly: A1R-mediated Akt activation in primary hippocampal neurons (Western blot). Format: cell-based, mice. As to the method: Primary hippocampal neurons derived from WT or neurabin deficiency (Ppp1r9a^−/−) mice were treated with R-PIA at the indicated concentrations. Representative blots of phospho-Akt (pAkt, Thr308) are shown.
Primary hippocampal neurons derived from WT or neurabin deficiency (Ppp1r9a^−/−) mice were treated with R-PIA at the indicated concentrations. Quantitation of phospho-Akt (pAkt, Thr308) is shown. *** represents p<0.001 by two-way ANOVA. N=4/group.
WT and Ppp1r9a^−/− neurons were stimulated with 1 μM R-PIA for the indicated time durations. Representative blots of pAkt are shown.
WT and Ppp1r9a^−/− neurons were stimulated with 1 μM R-PIA for the indicated time durations. Quantitation of pAkt is shown. * represents p<0.05; ** represents p<0.01; **** represents p<0.0001 by two-way ANOVA for multiple comparisons. N=4/group. Data are shown as mean±SEM.

The subject of another series is PTZ-induced seizures. Put plainly: PTZ-induced seizure in WT and neurabin null mice. Format: in vivo. On the procedure: (§1) Induction and evaluation of seizure were performed as described previously (See, for example, Chen Y, Liu Y, Cottingham C, McMahon L, Jiao K, Greengard P, et al. Neurabin scaffolding of adenosine receptor and RGS4 regulates anti-seizure effect of endogenous adenosine. J Neurosci. 2012, 32 (8): 2683-95). Ten to twelve week-old male mice were injected (i.p.) with kainate (Sigma) at 20 or 25 mg/kg (dissolved in saline), together with or without DPCPX (Sigma, 0.5 mg/kg in saline) or yohimbine (Sigma, 0.5 mg/kg in saline). Seizure severity was scored by trained observers blind to genotype and/or treatment. The severity of seizure behaviors was scored on a scale of 0 to 7, with 0 representing normal behavior and 7 representing death (see, for example, Yang D D, Kuan C Y, Whitmarsh A J, Rincon M, Zheng T S, Davis R J, et al. Absence of excitotoxicity-induced apoptosis in the hippocampus of mice lacking the Jnk3 gene. Nature. 1997, 389 (6653): 865-70; and Cottingham C, Chen Y, Jiao K, and Wang Q. The antidepressant desipramine is an arrestin-biased ligand at the alpha (2A)-adrenergic receptor driving receptor down-regulation in vitro and in vivo. J Biol Chem. 2011, 286 (41): 36063-75). To induce seizures with pentylenetetrazole (PTZ), mice were injected (i.p.) with PTZ at 40 mg/kg (dissolved in saline), with or without 8-Cyclopentyl-1,3-dipropylxanthine (DPCPX). Seizure severity was scored every 4 min for 30 min.

In series [5] the test system is kainate-induced seizures. Nature of the series: Kainate-induced seizure in WT and Rgs4-/- mice. Format: in vivo. On the procedure:
as §1, with “To induce seizures with pentylenetetrazole (PTZ), mice were injected (i.p.) with PTZ at 40 mg/kg (dissolved in saline), with or without 8-Cyclopentyl-1,3-dipropylxanthine (DPCPX).” left out

In series [6] the test system is kainate-induced seizures. Nature of the series: Kainate-induced seizure in mice given peptide (icv or intranasal). Format: in vivo. As to the method:
as §1, with “To induce seizures with pentylenetetrazole (PTZ), mice were injected (i.p.) with PTZ at 40 mg/kg (dissolved in saline), with or without 8-Cyclopentyl-1,3-dipropylxanthine (DPCPX).” left out, “min. […]” for “min.”

Series [7] deals with spontaneous epileptic spikes in APP/PS1 mice. Put plainly: EEG recording of spontaneous epileptic activity in APP/PS1 mice. Format: in vivo. Particulars: intranasal peptide plus i.p. DPCPX. As to the method: Implantation of electrodes for EEG recordings was performed under isoflurane anesthesia (4.5% for induction, approximately 2% for maintenance). In brief, 1 mm stainless steel electrodes (P1 Technologies, Roanoke, VA) were implanted into the primary somatosensory cortex at 1.8, 0.02, 1 (AP, ML, DV), and reference electrodes anterior to the bregma were implanted subdurally through small holes drilled in the skull. These electrodes were held in place with Dental cement kit (Stoelting), C&B Metabond Quick Adhesive Cement System (Parkell). The ground electrode was sutured in the cervical paraspinous area. […] EEG activity was recorded for 20 hrs using Biopac Systems amplifiers (Biopac Systems EEG100C) and AcqKnowledge 4.2 EEG Acquisition and analyzed with the Reader Software (Biopac Systems).
A total of 150 hrs of data was analyzed, 54 hrs for nTg mice and 96 hrs for APP/PS1 transgenic mice. Six hrs of recording were analyzed for each animal. […] When p-operator algorithm detected a spike, all signals were visually inspected to include in the analysis only those that were true positives in order to avoid non-epileptic artifacts caused by electrical noise (e.g., grooming) during spike selection. Spectral content of EEG signals were calculated using short-time Fourier transform (FFT).

Take “3i loop peptide: peptide carrying the sequence of the A1R 3i loop (aa202-235) (EVFYLIRKQLNKKVSASSGDPQKYYGKELKIAKS; UniProt P30542 202-235, looked up, fragment)”: in series [1], the “direct interaction of A1R (aa202-326) with Nrb331-453” value is recorded as “no effect”.
For the compound `CC(Cc1ccccc1)Nc1ncnc2c1ncn2[C@@H]1O[C@H](CO)[C@@H](O)[C@H]1O` (single isomer, unassigned; (-)) [R-PIA, (−)-N6-(2-Phenylisopropyl) adenosine], in series [2] (WT mice slices, 100 nM), the “inhibition of baseline transmission” value is listed as “about 75%”. For the same compound, the “inhibition of fEPSP” value in series [2] (WT mice slices, 10, 30, 100 nM) is recorded as “dose-dependently inhibited”. Moreover, in series [2] (slices from Ppp1r9a-/- or Rgs4-/- mice, same concentration (10 nM, FIG. 2E-F)), the “inhibition of fEPSP vs WT slices” value is reported as “significantly higher level of inhibition”. In addition, in series [3], the “effect on glutamate-induced neuronal death” value was “protective effect”. Besides, the “Akt phosphorylation at Thr 308” value in series [4] (WT neurons) is on record as “dose-dependent increase”. Further, the “Akt activation over time” value in series [4] (WT neurons, 1 μM R-PIA) is on record as “desensitized after 30 min stimulation”. Moreover, the “phospho-Akt levels at 30 min” value in series [4] (neurons lacking neurabin, 1 μM R-PIA) was “no apparent reduction”. The “Akt phosphorylation vs WT neurons” value in series [4] (neurons lacking neurabin, same dose) is on record as “significantly higher level of Akt phosphorylation”.
On to `CCCn1c(=O)c2[nH]c(C3CCCC3)nc2n(CCC)c1=O` [DPCPX, 8-Cyclopentyl-1,3-dipropylxanthine], for which, in the series with PTZ-induced seizures (WT and neurabin null mice, vs PTZ alone), the “PTZ-induced seizure severity on co-treatment with DPCPX” value is listed as “continued to progress to a much more severe level”. Further, the “death after combined treatment with PTZ and DPCPX” value in the series on PTZ-induced seizures (both genotypes (WT, Ppp1r9a-/-)) was “more than 55%”. For the same compound, the “effect of A1R blockade on seizure severity and mortality rate” value in the series on kainate-induced seizures [5] (Rgs4-/- mice, kainate plus DPCPX, to a level similar to WT) is “increased the seizure severity and mortality rate”. In the series with kainate-induced seizures [6] (icv peptide), the “anti-seizure effect of A1R-CT on co-treatment with DPCPX” value is “no longer observed”. Also, in the series with kainate-induced seizures [6] (intranasal peptide), the “anti-seizure effect of TAT-A1R-CT peptide on co-treatment with DPCPX” value was “abolished”. For the same compound, in series [7], the “effect of TAT-A1R-CT on epileptic activities with DPCPX” value is “failed to reduce epileptic activities”.
Regarding `C1CCc2nnnn2CC1` [PTZ, pentylenetetrazole], the “PTZ-induced lethality within 40 minutes” value with PTZ-induced seizures (WT mice, PTZ alone) is recorded as “About 10%”.
`C=C(C)[C@H]1CN[C@H](C(=O)O)[C@H]1CC(=O)O` [kainate]: in the series on kainate-induced seizures [5] (WT mice, kainate 20 mg/kg), the mortality after kainate entry is “over 40%”.
For “A1R-CT: peptide carrying the sequence of the A1R C-tail (aa293-326), without TAT fusion (QKFRVTFLKIWNDHFRCQPAPPIDEDLPEERPDD; UniProt P30542 293-326, looked up, fragment)”, in series [1], the “direct interaction of A1R (aa202-326) with Nrb331-453” value was “markedly reduced”.
